Source: patent US20010029033A1, “Novel gene rno upregulated in leukemia cells by nitric oxide and DMSO” (priority 2000, published 2001)

Tests used:
[1] = tested on: rno expression in HL-60 cells; assay: RT-PCR analysis of rno expression in HL-60 cells treated with differentiating agents; type: cell-based, human; settings: for rno expression (RT-PCR), sGC/cGMP pathway agents alone: ODQ 10 μM, 8-Br-cGMP 3 mM; for time course of rno induction (RT-PCR): 125 μM DETA-NO or 1.2% DMSO added once, 24, 48, 72 hr; for rno expression (RT-PCR): DETA-NO 125 μM, DMSO 1.2% (v/v), VD3 100 nM
Method: FIG. 4 is a […] showing the effect of differentiating agents on rno expression in HL-60 cells. For the upper panel, HL-60 cells were treated with DETA-NO, DMSO, or VD3 for 24 hours before analysis of rno expression by RT-PCR. Lane 1, no treatment control; Lane 2, DETA-NO; Lane 3, DMSO; Lane 4, VD3; Lane 5, water blank (no template); Lane 6, reverse transcriptase omitted from the reaction mixture; Lane 7, RT-PCR performed using RNA isolated from normal PMN (positive control). The positions of the size marker (MW) are indicated on the left. The positions of rno-1 and rno-3 are shown on the right. Referring to the lower panel, RT-PCR analysis of actin expression was used to control for the quality and integrity of the cDNA that was prepared from the various samples. Lane 1, no treatment control cells; Lane 2, cells treated with DETA-NO, Lane 3, cells treated with DMSO; Lane 4, cells treated with VD3; Lane 5, water blank (no template), Lane 6, RT-PCR performed using RNA isolated from normal PMN.
FIG. 5 illustrates the time course of rno induction in HL-60 cells. For the results of the upper panel, HL-60 cells were treated with 125 μM DETA-NO or 1.2% DMSO, and expression of rno was analyzed by RT-PCR at three different time points. MW, 100 bp DNA ladder; Lane 1, no-treatment control cells; Lane 2, cells treated with DETA-NO for 24 hr; Lane 3, cells treated with DETA-NO for 48 hr; Lane 4; cells treated with DETA-NO for 72 hr; Lane 5, cells treated with DMSO for 24 hr; Lane 6, cells treated with DMSO for 48 hr; Lane 7, cells treated with DMSO 72 hr; Lane 8, water blank (no template). The position of rno-1 is indicated on the left. For the results of the lower panel, RT-PCR analysis of actin expression was used to control for the quality and integrity of the cDNA that was prepared from the various samples. MW, 100 bp DNA ladder; Lane 1, no-treatment control cells; Lane 2, cells treated with DETA-NO for 24 hr; Lane 3, cells treated with DETA-NO for 48 hr; Lane 4; cells treated with DETA-NO for 72 hr; Lane 5, cells treated with DMO for 24 hr; Lane 6, cells treated with DMSO for 48 hr; Lane 7, cells treated with DMSO 72 hr. The position of actin is indicated on the left. DETA-NO upregulates rno within 24 hours and expression returns to baseline by 48 hours. DMSO also upregulates rno within 24 hours but expression persists through the entire 72 hr of exposure.
FIG. 6 illustrates the effect of cGMP on rno expression. In the upper pannel, HL-60 cells were treated with DETA-NO, 8Br-cGMP, ODQ, or ODQ and DETA-NO for 24 hours. Subsequently rno expression was analyzed by using RT-PCR. Lane 1, molecular mass standards (100 bp ladder); Lane 2, no-treatment control cells; Lane 3, DETA-NO; Lane 4, 8-Br-cGMP; Lane 5, ODQ; Lane 6, ODQ and DETA-NO; Lane 7, water blank (no cDNA template); Lane 8, reverse transcriptase omitted from one of the reaction mixtures. The position of rno-1 is indicated on the left. In the lower panel, RT-PCR analysis of actin expression was used to control for the quality and integrity of the cDNA that was prepared from the various samples. Lane 1,100 bp DNA ladder; Lane 2, no-treatment control; Lane 3, cells treated with DETA-NO; Lane 4, cells treated with 8Br-cGMP; Lane 5, cells treated with ODQ; Lane 6, cells treated with ODQ and DETA-NO. The position of actin is indicated on the left. Upregulation of rno by DETA-NO is cGMP-independent.
Referring to FIG. 4, RT-PCR was used to compare the effects of three differentiating agents on expression of rno. NO induces HL-60 cells to differentiate along the monocytic lineage. Magrinat, G et al. (1992) Blood, 80:1980-1986. DMSO is a granulocytic differentiation agent, while VD3 induces monocytic differentiation. Trayner, ID et al. (1998) Leuk Res., 22:537-547.
Referring to FIG. 4, both NO and DMSO induce expression of rno. To determine if the time-course of induction is similar, HL-60 cells were incubated with either DETA-NO or DMSO for 72 hr. […]

[2] = Half-life of NO release of DETA-NO; type: physicochemical; settings: by the time the 48 hr sample was harvested, from half-life of 20 hr
Method: HL-60 cells were from ATCC (Rockville, Md.) and were cultured at 37° C. in a 5% CO2 humidified atmosphere at a density of 150,000 cells/ml. The culture medium consisted of RPMI-1640 supplemented with 10% fetal bovine serum and 1% Penicillin (10,000 U/mL)/Streptomycin (10 mg/mL). (Z)-1-[2-(2-Aminoethyl)-N-(2-ammonioethyl)amino]diazen-1-um-1,2-diolate] (DETA-NO) was used as a source of NO. DETA-NO belongs to the diazenium diolate class of NO donors and releases 2 molecules of NO per carrier moiety with a half-life of NO release of 20 hours. Keefer, L K et al. (1996) Methods in Enzymology.268:281-293. The effects of the following other differentiating agents on expression of rno were also investigated: dimethyl sulfoxide (DMSO); all-trans retinoic acid (ATRA); and vitamin D3 (VD3). DETA-NO, DMSO, ATRA, or VD3 were added once to HL-60 cells at the time of culture initiation at concentrations of 125 μM, 1.2% (v/v), 1 μM, and 100 nM, respectively. For studies of the role of the soluble guanylate cyclase (sGC)/cGMP signal transduction pathway in NO upregulation of rno, the sGC inhibitor 1H-[1,2,4]oxadiazolo[4,3-a]quinoxalin-1 -one (ODQ) and the cell permeable cGMP analogue 8-Br-cGMP at concentrations of 10 μM were used and 3 mM, respectively. Brunner, F et al. (1996) J Pharmacol Exp Ther. 277:48-53; Boss, GR.(1989) Proc Natl Acad Sci USA. 86:7174-7178. […]

[3] = tested on: rno expression in HL-60 cells; assay: Northern analysis of rno expression in DETA-NO treated HL-60 cells; type: cell-based, human; settings: DETA-NO 125 μM, 24 hr, DP-3A probe
Method: FIG. 1 is a northern blot showing the induction of rno expression by NO. HL-60 cells were treated for 24 hr with DETA-NO (125 μM). Total cellular RNA was isolated and northern analysis was performed by using radiolabelled rno DP-3A as a probe as shown in the upper panel. […] The positions of the bands representing 28S and 18S ribosomal RNA are indicated on the left. Lane 1, RNA from control, untreated cells; Lane 2, RNA from DETA-NO treated cells.
The following two sets of cells were used for analysis of the effects NO on gene expression: control HL-60 cells incubated in media for 24 hours and HL-60 cells treated with 125 μM DETA-NO (a NO generating compound) for the same time period. Poly (A^+) RNA was prepared from the two sets of cells, and this material was used as template for the synthesis of double stranded cDNA. Following digestion with BglII, a set of primer/adapters was ligated to aliquots of each sample, and this cDNA was amplified by PCR to generate representations from the control and treated populations. By using the technique of RDA modified for cDNA, gene expression between the control and DETA-NO treated cells was compared. Lisitsyn, N et al. (1993) Science.259:946-951; Hubank, M & Schatz, D G (1994) Nucl Acids Res. 22:5640-5648; Kanai, N et al. (1999) Am J Hematol., 61:221-231. In the present study, two sets of subtraction/hybridizations were performed in parallel. […]

| SMILES | rno expression (RT-PCR), sGC/cGMP pathway agents alone ([1]; 24 hours) | time course of rno induction (RT-PCR) [1] | rno expression (RT-PCR) ([1]; 24 hours) | other results |
| --- | --- | --- | --- | --- |
| Nc1nc2c(nc(Br)n2[C@@H]2O[C@@H]3COP(=O)(O)O[C@H]3[C@H]2O)c(=O)[nH]1 [8-Br-9 cGMP] | did not induce rno expression | – | – | – |
| CC1=C(/C=C/C(C)=C/C=C/C(C)=C/C(=O)O)C(C)(C)CCC1 [ATRA, all-trans retinoic acid] | – | – | – | rno expression (RT-PCR), data not shown ([1]; ATRA 1 μM, even after 72 hr of exposure): no effect on rno expression |
| NCCN(CCN)/[N+]([O-])=N/O [DETA-NO] | – | evident at 24 hr and returned to baseline by 48 hr | upregulated | decrease of functional activity of the reagent [2]: more than 75%; rno expression (northern blot) [3]: upregulates rno expression |
| C[S+](C)[O-] [DMSO, dimethyl sulfoxide] | – | induced expression of rno within 24 hr, however, expression persisted through the entire 72 hr observation period | upregulated | – |
| O=c1onc2cnc3ccccc3n12 [ODQ, 1H-[1,2,4]oxadiazolo[4,3-a]quinoxalin-1-one] | did not upregulate rno expression | – | – | effect of sGC inhibitor on induction of rno by DETA-NO (RT-PCR) ([1]; ODQ and DETA-NO in combination, 24 hours): did not prevent the induction of rno by DETA-NO |
| C=C1CC[C@H](O)C/C1=C/C=C1\CCC[C@]2(C)[C@@H]([C@H](C)CCCC(C)C)CC[C@@H]12 [VD3, vitamin D3] | – | – | not by VD3 | – |
